A short description of the data set: gradient 5% acetonitrile 3 min, to 50% in 2 min, to 85% in 15 min, held 3 min, 100 µL/min. Particulars: column: Zorbax Extend-C18 2.1 x 50 mm; eluents: water / acetonitrile, 0.1% formic acid. Put shortly: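 Pure standards were run in mixtures of ~100 molecules by HPLC coupled to a quadrupole time-of-flight mass spectrometer. The column was a Zorbax Extend-C18 (2.1 × 50 mm, 1.8 μm) at 100 μL/min, with water and acetonitrile each containing 0.1% formic acid, in positive and negative ionization mode. Dead and dwell volumes were 40 μL and 900 μL. Retention time was taken from computationally picked adduct peaks, each manually inspected, with data collected over 3 months.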
On to `CCCC(NC(=O)c1ccccn1)C(=O)Nc1nc2ccccc2[nH]1` (centres undefined), for which the RP-LC retention time came out at 670 s.

Turning to `Cc1cc(NC(=O)C2CCc3nc(N4CCOCC4)ncc3C2)ccc1F` (centres undefined), the RP-LC retention time is 797 s. The value for `Cc1cc(C(=O)Nc2sc(C)c(C)c2C#N)on1` was 786 s. Molecule `Cc1oc(-c2ccc(C(=O)NCCCN3CCCC3=O)cc2)nc1CN1CCc2ccccc21` had an RP-LC retention time of 853 s. `Cc1cnc(C(=O)NCC2Cn3cccc3C(=O)N2CC(C)C)cn1` (centres undefined) yielded an RP-LC retention time of 706 s. For the molecule `Cc1ccc(C)c(-c2coc(-c3ccc(NC(=O)C(C)C)cc3)n2)c1`, the RP-LC retention time was found to be 1170 s. The value for `CCOc1ccc2c(n1)CCN(C(=O)Nc1cc(C)ccc1C)C2` was 862 s; that for `O=C(NCCc1nc2cccnc2n1C1CCCC1)NCc1ccco1` was 652 s. As for `CCc1ccc(-n2nc(N3CCCC(C(=O)NCc4cccc(F)c4)C3)ccc2=O)cc1` (centres undefined), the figure is 899 s; as for `COc1ccccc1-c1nc(-c2ccc(S(=O)(=O)N3CCCCC3)cc2)no1`, 1220 s.

`Cn1cc(Cl)c(C(=O)N2CCCC2c2cccc(F)c2)n1` (centres undefined): the RP-LC retention time is 807 s. In the case of `Cc1ccc(-c2csc(Cc3nc(-c4ccccc4)no3)n2)cc1`, the RP-LC retention time worked out at 1250 s. As for `CCc1ccc(N2CC(c3noc(-c4ccc(OC)cc4OC)n3)CC2=O)cc1` (centres undefined), the figure is 1040 s; as for `O=C(NC1CC1)c1ccc(OCC2CCCN(C(=O)c3ccc(F)c(F)c3)C2)cc1` (centres undefined), 820 s.

`COc1ccc(NC(=O)c2cc(C(C)C)n3nccc3n2)cc1Cl` had an RP-LC retention time of 1130 s. The value for `Clc1ccccc1C1Cn2cnc(-c3nc(-c4cccnc4)no3)c2CO1` (centres undefined) was 825 s; that for `COc1ccc(Cc2nnc(C3CCN(C(=O)c4cccc(N(C)C)c4)CC3)s2)cc1` was 712 s. As for `C[C@@H]1O[C@@H](OC2O[C@@H](COc3cc(O)c4c(=O)cc(-c5ccc(O)cc5)oc4c3)[C@@H](O)[C@@H](O)[C@@H]2O)[C@H](O)[C@H](O)[C@H]1O` (some centres undefined), the figure is 671 s; as for `COc1ccccc1C1C2=C(CC(C)(C)CC2=O)Nc2ccccc2N1C(=O)CCC(=O)O` (centres undefined), 699 s. Regarding `Cc1ccc(-c2cn3c(CC(=O)NCc4ccccc4)csc3n2)cc1C`, the RP-LC retention time came to 826 s. `Cc1ccc(CNC(=O)Cn2c(=O)nc(N3CCC(C)CC3)c3ccccc32)cc1` registered an RP-LC retention time of 860 s. As for `COc1ccc(-n2nc(C(=O)N3CCCCC3c3cccnc3)c(=O)n(C)c2=O)cc1` (centres undefined), the figure is 638 s. Consider `CCn1c(=O)c(NCc2ccc(C)c(C)c2)nc2ccncc21`, for which the RP-LC retention time was 672 s. For `CCCNC(=O)C1CCN(c2ccc(SCC(=O)NCc3ccc(C(F)(F)F)cc3)nn2)CC1`, the RP-LC retention time was found to be 675 s. The value for `CSc1ccc(CNC(=O)Cn2nc(-n3cccc3)c3c(C)cc(C)nc32)cc1` was 1020 s; that for `CN1C(=O)c2cccnc2Sc2cc(NC(=O)C3CC3)ccc21` was 650 s; that for `O=C1CC(c2ccc(C(=O)O)cc2)c2scc(-c3ccccc3F)c2N1` (centres undefined) was 804 s. `COc1ccc(N2CCCS2(=O)=O)cc1NC(=O)c1ccc(Br)o1` yielded an RP-LC retention time of 767 s. `COc1cc(C(=O)Nc2cccc(-c3cn4ccsc4n3)c2)c([N+](=O)[O-])cc1OC` had an RP-LC retention time of 658 s. In turn, `COCCN1CCn2cc(S(=O)(=O)Nc3cc(C)ccc3C)cc2C1=O` displayed an RP-LC retention time of 730 s. In the case of `O=C(C1CCCN(c2nnc3ccc(Cl)cn23)C1)N1CCN(C2CCCCC2)CC1` (centres undefined), the RP-LC retention time was 525 s. In turn, `CC1CCCCN1CCCN1C(=O)c2ccccc2C1C(=O)NC1CCCCC1` (centres undefined) returned an RP-LC retention time of 642 s. With `CC(C)CC(=O)N1C[C@H](c2nc(-c3ccccc3)no2)[C@@H](C)C1`, the RP-LC retention time worked out at 951 s. The value for `Cc1nc2ccccn2c(=O)c1Cc1nnc(SCC(=O)NCc2nc3ccccc3[nH]2)n1C` was 544 s; that for `Cc1ccc(CN2CCC(CNC(=O)C3CCCN(c4nccc(C)n4)C3)CC2)cc1` (centres undefined) was 594 s.

`O=C1COc2ccc(Cl)cc2N1Cc1nc(-c2ccc3c(c2)OCO3)no1` returned an RP-LC retention time of 1040 s. As for `C=CCNC(=O)c1nc(C(=O)N2CCN(c3ccccn3)CC2)cs1`, the figure is 567 s. In the case of `O=C(Nc1cnn(-c2ncncc2N2CCCCC2)c1)C1CCCCC1`, the RP-LC retention time is 821 s. Molecule `Cc1cc(N2CCN(C)CC2)nc2ccc(NC(=O)CCC(=O)NCCc3ccc(Cl)cc3)cc12` had an RP-LC retention time of 581 s. As to `CCc1noc(-c2ccnc(-n3cnc(C(=O)NCC4CC4)c3)c2)n1`, the RP-LC retention time stood at 801 s. Consider `O=C(Nc1ccc(N2CCOCC2)cc1)C1CCN(c2cnc3nccnc3c2)CC1`, for which the RP-LC retention time came out at 610 s. In turn, `C#C[C@]1(O)CC[C@H]2[C@@H]3CCC4=Cc5oncc5CC4(C)[C@H]3CCC21C` (some centres undefined) yielded an RP-LC retention time of 1180 s. In turn, `COC(=O)c1c(C(=O)OC)c2c3ccccc3ccn2c1C(=O)OC` displayed an RP-LC retention time of 916 s. As for `Nc1ncnc(Nc2cccc3c2CCCC3)c1[N+](=O)[O-]`, the figure is 838 s; as for `Cc1cccc(OCC(O)Cn2c(C3CC3)nc3ccccc32)c1` (centres undefined), 685 s. Consider `CCC(C(=O)N1CCc2ccccc21)n1cnc2nc3c(cc2c1=O)CCCC3` (centres undefined), for which the RP-LC retention time amounted to 899 s. Take `CN1CCN(c2c(C(=O)c3ccccc3)cnc3cc4c(cc23)OCCO4)CC1`: the RP-LC retention time worked out at 551 s. The value for `Cc1cc(C(=O)NCc2cc(F)cc(F)c2)nc2cc(-c3cccs3)nn12` was 1120 s; that for `Cc1ccc(C)c(N2CCN(Cc3nc(-c4ccc(N5CCCC5)nc4)no3)CC2)c1` was 784 s; that for `CCc1ccc(S(=O)(=O)Nc2ccc3nc(N4CCN(CC)CC4)cc(C(=O)O)c3c2)cc1` was 610 s. With `Cc1cc(C)cc(NC(=O)C2CCN(c3c(C(=O)N4CCC(C)CC4)cnc4snc(C)c34)CC2)c1`, the RP-LC retention time worked out at 1100 s.

Molecule `COC(=O)c1c(C)c(C(=O)C(C)N(Cc2ccc(F)cc2)C(=O)C(C)C)c(C)n1C` (centres undefined) displayed an RP-LC retention time of 990 s.

`Cc1ccc(C)c(Nc2c(-c3ccc(O)cc3)nc3ncccn23)c1` returned an RP-LC retention time of 664 s.

The molecule `Cn1nc(C2CCN(C(=O)C3CCC3)CC2)c2c1CCOC2` registered an RP-LC retention time of 659 s. The value for `O=C(CC1CCCC1)NCCn1c(=O)n(Cc2ccc(F)cc2)c2cccnc21` was 814 s; that for `CCOC(=O)Cc1csc(NC(=O)CN2CC(c3nc(C4CC4)no3)C2)n1` was 575 s. Molecule `Cn1c(CNC(=O)C2CCC2)nc2c1CN(C(=O)c1ccc(C(F)(F)F)s1)CC2` yielded an RP-LC retention time of 656 s. As for `O=C(O)c1nc(N2CCCC2)c2oc3ccccc3c2n1`, the figure is 617 s; as for `COc1ccc(C(=O)Cn2c(=O)n(Cc3ccc4c(c3)OCO4)c(=O)c3ncccc32)cc1`, 819 s. The value for `O=C(CSc1ccc(N2CCC(C(=O)NC3CC3)CC2)nn1)NCc1ccc(F)cc1` was 609 s. The value for `O=C(NCc1ccco1)c1csc(N2CCN(c3cccc(Cl)c3)CC2)n1` was 1080 s. Regarding `CCc1ccc(NC(=O)N2CCC(n3cnc4c(Cl)cccc4c3=O)CC2)cc1`, the RP-LC retention time came out at 890 s.

`O=C(Nc1cccc([N+](=O)[O-])c1)C(=O)N1CCN(c2cccc(Cl)c2)CC1`: the RP-LC retention time amounted to 950 s.

`O=C(NCCc1ccc(F)cc1)C(=O)Nc1cccc(N2CCCC2=O)c1` came in with an RP-LC retention time of 771 s. As for `Cc1cccc(NC(=O)CN2C(=O)CC(C)S(=O)(=O)c3ccccc32)c1` (centres undefined), the figure is 768 s; as for `O=C(NCc1ccncc1)C1CCCN(c2nnc3c(Cl)cccn23)C1` (centres undefined), 561 s. The value for `O=C(O)c1cnc(NCC2CC2)nc1-c1ccccc1` was 745 s; that for `Cn1cc(CC(=O)NCC2CCCCC2)c2cccnc21` was 734 s; that for `Fc1ccc(Cn2cc(-c3noc(-c4cccc(F)c4)n3)nn2)cc1` was 1010 s.

`Cc1ccc(Nc2nc3ccncc3n(C(C)C)c2=O)cc1F` showed an RP-LC retention time of 722 s. `Cc1nc(Nc2nccc(-c3ccccc3)n2)nc2ccccc12` displayed an RP-LC retention time of 677 s.

With `CCOC(=O)C1=C(CNc2ccc(C)c(Cl)c2)NC(=O)NC1c1ccc2c(c1)OCO2` (centres undefined), the RP-LC retention time is 897 s. `O=[N+]([O-])c1ccc(CSc2ccc(-c3ccccn3)nn2)cc1` came in with an RP-LC retention time of 893 s. In turn, `CN(C)CCNC(=O)C1CCN(c2ccc3nnc(-c4ccccc4Cl)n3n2)CC1` yielded an RP-LC retention time of 589 s. Molecule `Cc1ccccc1-c1nc(Cn2ccnc2)no1` returned an RP-LC retention time of 609 s.

On to `O=C(NC1CC1)C1CCN(C(=O)c2ncn3c2COC(c2ccc(F)cc2)C3)CC1` (centres undefined), for which the RP-LC retention time worked out at 630 s. The molecule `O=C(Nc1cccc(OCc2nnc(-c3ccc(Cl)cc3)o2)c1)c1ccccn1` registered an RP-LC retention time of 1070 s.

With `Cc1nccn1C1CN(S(=O)(=O)c2cccc(F)c2)C1`, the RP-LC retention time is 604 s. As for `Cc1cc(C)n(CCNC(=O)C2(c3cccs3)CCCC2)n1`, the figure is 736 s.
